Measurements as given in US11547681B2, “N-acylethanolamide derivatives and uses thereof” (ELIEM THERAPEUTICS, INC., priority 2016, dated 2023).

Test: in vitro
Conditions: for Measured concentration of analyte PEA, 0 min / Measured concentration of analyte PEA, 10 min / Measured concentration of analyte PEA, 20 min / Measured concentration of analyte PEA, 30 min / Measured concentration of analyte PEA, 60 min / % Remaining of Initial, 0 min / % Remaining of Initial, 10 min / % Remaining of Initial, 20 min / % Remaining of Initial, 30 min / % Remaining of Initial, 60 min: 1 μM; for % Remaining of Initial, 0 min / % Remaining of Initial, 10 min / % Remaining of Initial, 20 min / % Remaining of Initial, 30 min / % Remaining of Initial, 60 min / microsomal CLint at 1 μM / half-life at 1 μM / microsomal CLint / half-life: microsomes; for % Remaining of Initial, 0 min: 0 h; for % Remaining of Initial, 30 min: 0.5 h; for % Remaining of Initial, 60 min: 1 h
Procedure: The reaction mixture, minus cofactors, was prepared as described below. The test article was added into the reaction mixture at a final concentration of 1 μM. […] An aliquot of the reaction mixture (without cofactor) was equilibrated in a shaking water bath at 37° C. for 3 minutes. The reaction was initiated by the addition of cofactor, and the mixture was incubated in a shaking water bath at 37° C. Aliquots (100 μL) were withdrawn at 0, 10, 20, 30, and 60 minutes. All samples were immediately combined with 400 μL of ice-cold 50/50 acetonitrile/H2O containing 0.1% formic acid and internal standard to terminate the reaction. The samples were then mixed and centrifuged to precipitate proteins. Calibration standards were prepared in matched matrix. All samples and standards were assayed by LC-MS/MS using electrospray ionization for both the dosed prodrug I-9 and the expected drug (PEA). Analytical conditions are outlined in Appendix 4-1. The test article concentration at each time point was compared to the test article concentration at time 0 to determine the percent remaining at each time point. Half-lives were calculated using GraphPad software, fitting to a single-phase exponential decay equation.
Reaction mixture, minus cofactors, was prepared as described below. Test article was added into the reaction mixture at a final concentration of 1 μM. […] An aliquot of the reaction mixture (without cofactor) was equilibrated in a shaking water bath at 37° C. for 3 minutes. The reaction was initiated by the addition of cofactor, and the mixture was incubated in a shaking water bath at 37° C. Aliquots (100 μL) were withdrawn at 0, 10, 20, 30, and 60 minutes. Test article samples were immediately combined with 300 μL of ice-cold acetonitrile containing 1% formic acid. Control samples were immediately combined with 400 μL of ice-cold 50/50 acetonitrile (ACN)/dH2O containing 0.1% formic acid and internal standard to terminate the reaction. Samples were then mixed and centrifuged to precipitate proteins. Calibration standards were prepared in matched matrix. Samples and standards were assayed by LC-MS/MS using electrospray ionization for both dosed prodrug and expected drug (PEA). Analytical conditions are outlined in Appendix 8-1. Test article concentration at each time point was compared to test article concentration at time 0 to determine the percent remaining at each time point. Half-lives were calculated using GraphPad software, fitting to a single-phase exponential decay equation.
Reaction mixture, minus cofactors, was prepared as described below. Test article was added into the reaction mixture at a final concentration of 1 μM. […] An aliquot of the reaction mixture (without cofactor) was equilibrated in a shaking water bath at 37° C. for 5 minutes. Reaction was initiated by the addition of cofactor, and the mixture was incubated in a shaking water bath at 37° C. Aliquots (100 μL) were withdrawn at 0, 10, 20, 30, and 60 minutes. Test article samples were immediately combined with 300 μL of ice-cold acetonitrile containing 1% formic acid. Control samples were immediately combined with 400 μL of ice-cold 50/50 acetonitrile (ACN)/dH2O containing 0.1% formic acid and internal standard to terminate the reaction. Samples were then mixed and centrifuged to precipitate proteins. Calibration standards were prepared in matched matrix. Samples and standards were assayed by LC-MS/MS using electrospray ionization for both the dosed prodrug and the expected drug (PEA). Analytical conditions are outlined in Appendix 10-1. Test article concentration at each time point was compared to the test article concentration at time 0 to determine the percent remaining at each time point. Half-lives were calculated using GraphPad software, fitting to a single-phase exponential decay equation.
Reaction mixture, minus cofactors, was prepared as described below. Test article was added into the reaction mixture at a final concentration of 1 μM.

[1] = both, human, CLint, calculated value in parentheses
[2] = both, human, Calculated half-life (in parentheses)
[3] = male, Sprague-Dawley, rat, CLint
[4] = male, Sprague-Dawley, rat, CLint, calculated value in parentheses
[5] = male, Sprague-Dawley, rat, Calculated half-life (in parentheses)
[6] = male, Sprague-Dawley, rat, Half-life

Structure (SMILES)	Measured concentration of analyte PEA, 0 min (both, human)	Measured concentration of analyte PEA, 10 min (both, human)	Measured concentration of analyte PEA, 20 min (both, human)	Measured concentration of analyte PEA, 30 min (both, human)	Measured concentration of analyte PEA, 60 min (both, human)	% Remaining of Initial, 0 min (both, human)	% Remaining of Initial, 10 min (both, human)	% Remaining of Initial, 20 min (both, human)	% Remaining of Initial, 30 min (both, human)	% Remaining of Initial, 60 min (both, human)	microsomal CLint at 1 μM (both, human, CLint)	microsomal CLint at 1 μM [1]	half-life at 1 μM [2]	half-life at 1 μM (both, human, Half-life)	Measured concentration of analyte PEA, 0 min (male, Sprague-Dawley, rat)	Measured concentration of analyte PEA, 10 min (male, Sprague-Dawley, rat)	Measured concentration of analyte PEA, 20 min (male, Sprague-Dawley, rat)	Measured concentration of analyte PEA, 30 min (male, Sprague-Dawley, rat)	Measured concentration of analyte PEA, 60 min (male, Sprague-Dawley, rat)	% Remaining of Initial, 0 min (male, Sprague-Dawley, rat)	further results
CCCCC/C=C\C/C=C\CCCCCCCC(=O)OCCNC(=O)CCCCCCCCCCCCCCC [Compound I-6]	0 µM	0 µM	0 µM	0 µM	0 µM	100%	82%	58%	66%	68%	< 23.1 µL/min/mg	14.3 µL/min/mg	1.62 h	> 1 h	0.14 µM	0.064 µM	0.017 µM	0.0098 µM	0.0012 µM	100%	% Remaining of Initial, 10 min (male, Sprague-Dawley, rat): 68%; % Remaining of Initial, 20 min (male, Sprague-Dawley, rat): 67%; % Remaining of Initial, 30 min (male, Sprague-Dawley, rat): 62%; % Remaining of Initial, 60 min (male, Sprague-Dawley, rat): 53%; microsomal CLint at 1 μM [3]: < 23.1 µL/min/mg; microsomal CLint at 1 μM [4]: 21.9 µL/min/mg; half-life at 1 μM [5]: 1.05 h; half-life at 1 μM [6]: > 1 h
CC/C=C\C/C=C\C/C=C\C/C=C\C/C=C\CCCC(=O)OCCNC(=O)CCCCCCCCCCCCCCC [Compound I-5]	0.014 µM	0.020 µM	0.025 µM	0.022 µM	0.016 µM	100%	90%	82%	79%	62%	< 23.1 µL/min/mg	15.4 µL/min/mg	1.5 h	> 1 h	0.034 µM	0.033 µM	0.015 µM	0.015 µM	0.0027 µM	100%	% Remaining of Initial, 10 min (male, Sprague-Dawley, rat): 77%; % Remaining of Initial, 20 min (male, Sprague-Dawley, rat): 70%; % Remaining of Initial, 30 min (male, Sprague-Dawley, rat): 69%; % Remaining of Initial, 60 min (male, Sprague-Dawley, rat): 57%; microsomal CLint at 1 μM [3]: < 23.1 µL/min/mg; microsomal CLint at 1 μM [4]: 18.6 µL/min/mg; half-life at 1 μM [5]: 1.25 h; half-life at 1 μM [6]: > 1 h
CCCCCCCCCCCCCCCC(=O)NCCOC(=O)CCC(=O)OCC(COC(=O)CCCCCCC)OC(=O)CCCCCCC (stereo not shown) [Compound I-3, PEA-Succinate-Glycerol-Di-Caprylic]	0 µM	0.026 µM	0.017 µM	0.019 µM	0.027 µM	100%	83%	79%	74%	53%	< 23.1 µL/min/mg	20 µL/min/mg	1.15 h	> 1 h	0.032 µM	0.039 µM	0.018 µM	0.0067 µM	0 µM	100%	% Remaining of Initial, 10 min (male, Sprague-Dawley, rat): 81%; % Remaining of Initial, 20 min (male, Sprague-Dawley, rat): 88%; % Remaining of Initial, 30 min (male, Sprague-Dawley, rat): 72%; % Remaining of Initial, 60 min (male, Sprague-Dawley, rat): 68%; microsomal CLint at 1 μM [3]: < 23.1 µL/min/mg; microsomal CLint at 1 μM [4]: 12.4 µL/min/mg; half-life at 1 μM [5]: 1.87 h; half-life at 1 μM [6]: > 1 h
C[C@]12CC[C@H]3[C@@H](CCC4=CC(=O)CC[C@@]43C)[C@@H]1CC[C@@H]2O [Testosterone, testosterone, reference compound]																					Clint, control compound (Example 4 control run): 0.0792 ml/min/mg protein; Half-life, control compound (Example 4 control run): 0.283 h; microsomal CLint (both, human, CLint, Control Compound, Human liver microsomes): 66.7 µL/min/mg; microsomal CLint (both, human, CLint, Control compound, Human liver microsomes): 50.5 µL/min/mg; microsomal CLint (both, human, CLint, Human liver microsomes, control compound): 66.7 µL/min/mg; microsomal CLint (both, human, CLint, control compound, human liver microsomes): 151 µL/min/mg; half-life (both, human, Half-life, Control Compound, Human liver microsomes): 0.35 h; half-life (both, human, Half-life, Control compound, Human liver microsomes): 0.45 h; half-life at 1 μM (both, human, Half-life, Human liver microsomes): 0.35 h; microsomal CLint (male, Sprague-Dawley, CLint, Control Compound, Rat liver microsomes): 1010 µL/min/mg; microsomal CLint (male, Sprague-Dawley, CLint, Control compound, Rat liver microsomes): 760 µL/min/mg; microsomal CLint (male, Sprague-Dawley, CLint, Rat liver microsomes, control compound): 1010 µL/min/mg; microsomal CLint (male, Sprague-Dawley, CLint, control compound, rat liver microsomes): 911 µL/min/mg; microsomal CLint (male, Sprague-Dawley, Clint, control compound, Example 4 control run): 1030 µL/min/mg; half-life (male, Sprague-Dawley, Half-life, Control Compound, Rat liver microsomes): 0.0233 h; half-life (male, Sprague-Dawley, Half-life, Control compound, Rat liver microsomes): 0.03 h; half-life at 1 μM (male, Sprague-Dawley, Half-life, Rat liver microsomes): 0.0233 h; half-life (male, Sprague-Dawley, Half-life, control compound, Example 4 control run): 0.0233 h; half-life (male, Sprague-Dawley, Half-life, control compound, rat liver microsomes): 0.025 h
